Laboratory results: patent US20100292184A1, “17BETA-CYANO-19-ANDROST-4-ENE DERIVATIVE, ITS USE AND MEDICAMENTS COMPRISING THE DERIVATIVE” (BAYER SCHERING PHARMA AG, priority 2007, published 2010)
Where two headings read alike, the source gives them in different places.

Experiments:
PR = molecular target: T1, PR (Rattus norvegicus, UniProt Q63449); assay: maintenance of pregnancy test on the rat; assay type: in vivo; details: ovarectomized pregnant rats; for PR in vivo ED50 (pregnancy-maintaining dose): s.c. once daily from day 8 to day 15 or 21, with oestrone 5 μg/kg/day
T1 construct: from tissue; host or cells: whole animal: pregnant, ovariectomized rats
T1 sequence (Q63449 1-923): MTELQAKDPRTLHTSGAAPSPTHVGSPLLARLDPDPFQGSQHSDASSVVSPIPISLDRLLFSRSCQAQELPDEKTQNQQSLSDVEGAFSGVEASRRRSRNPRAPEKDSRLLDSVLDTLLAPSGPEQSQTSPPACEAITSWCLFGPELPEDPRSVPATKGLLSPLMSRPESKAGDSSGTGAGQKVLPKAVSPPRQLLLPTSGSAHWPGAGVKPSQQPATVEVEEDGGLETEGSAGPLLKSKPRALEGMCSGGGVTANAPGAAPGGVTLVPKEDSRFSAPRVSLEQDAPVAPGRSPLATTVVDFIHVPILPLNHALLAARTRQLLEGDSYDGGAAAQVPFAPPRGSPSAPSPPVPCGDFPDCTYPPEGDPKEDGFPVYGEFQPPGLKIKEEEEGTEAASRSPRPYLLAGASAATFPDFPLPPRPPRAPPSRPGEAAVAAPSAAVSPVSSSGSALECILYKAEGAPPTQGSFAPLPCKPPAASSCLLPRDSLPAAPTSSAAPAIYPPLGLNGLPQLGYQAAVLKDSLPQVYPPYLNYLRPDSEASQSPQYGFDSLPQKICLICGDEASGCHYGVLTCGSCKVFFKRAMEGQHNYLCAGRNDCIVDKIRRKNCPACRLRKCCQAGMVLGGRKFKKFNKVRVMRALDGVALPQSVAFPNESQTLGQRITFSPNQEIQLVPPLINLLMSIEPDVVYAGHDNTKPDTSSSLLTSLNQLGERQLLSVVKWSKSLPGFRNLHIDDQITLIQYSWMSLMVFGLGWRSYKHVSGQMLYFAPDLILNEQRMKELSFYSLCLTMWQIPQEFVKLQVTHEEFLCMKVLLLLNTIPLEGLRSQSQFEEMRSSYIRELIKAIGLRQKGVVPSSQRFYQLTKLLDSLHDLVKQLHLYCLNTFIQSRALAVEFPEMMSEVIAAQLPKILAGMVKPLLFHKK
Source text: Carrying out the maintenance of pregnancy test on the rat:
In pregnant rats, the removal of the corpora lutea or oophorectomy induces an abortion. By means of the exogenous administration of progestins (gestagens) in combination with a suitable dose of an oestrogen, the maintenance of pregnancy is possible. The maintenance of pregnancy test on ovarectomized rats serves for the determination of the peripheral gestagenic activity of a compound.
Rats were paired overnight during proestrus. Pairing was checked on the morning of the following day by the appraisal of a vaginal smear. The presence of the sperm was evaluated here as day 1 of a commencing pregnancy. On day 8 of the pregnancy, the animals were ovarectomized under ether anaesthesia. The treatment with test compound and exogenous oestrogen (oestrone, 5 μg/kg/day) was carried out subcutaneously once daily from day 8 to day 15 or day 21 of the pregnancy. The first administration on day 8 was carried out two hours before oophorectomy. Intact control animals were given exclusively vehicle.
At the end of the experiment (day 15 or day 21), the animals were sacrificed under a CO2 atmosphere, and live foetuses (foetuses having a beating heart) and implantation sites (early resorptions and dead foetuses including autolysis and atrophic placentas) were counted in both uterine horns. On day 22, it was moreover possible to examine foetuses for malformations. In uteri without foetuses or implantation sites, the number of nidation sites was determined by staining with 10% strength ammonium sulphide solution. The maintenance of pregnancy rate was calculated as the quotient of the number of living foetuses and the total number of nidation sites (both resorbed and dead foetuses and nidation sites). For drospirenone, this value is 3.5 mg/kg/day.

[1] = molecular target: T2, mineralcorticoid receptor (Homo sapiens, UniProt P08235); assay: MR antagonism luciferase reporter cell line assay; assay type: cell-based
T2 sequence (P08235 1-984): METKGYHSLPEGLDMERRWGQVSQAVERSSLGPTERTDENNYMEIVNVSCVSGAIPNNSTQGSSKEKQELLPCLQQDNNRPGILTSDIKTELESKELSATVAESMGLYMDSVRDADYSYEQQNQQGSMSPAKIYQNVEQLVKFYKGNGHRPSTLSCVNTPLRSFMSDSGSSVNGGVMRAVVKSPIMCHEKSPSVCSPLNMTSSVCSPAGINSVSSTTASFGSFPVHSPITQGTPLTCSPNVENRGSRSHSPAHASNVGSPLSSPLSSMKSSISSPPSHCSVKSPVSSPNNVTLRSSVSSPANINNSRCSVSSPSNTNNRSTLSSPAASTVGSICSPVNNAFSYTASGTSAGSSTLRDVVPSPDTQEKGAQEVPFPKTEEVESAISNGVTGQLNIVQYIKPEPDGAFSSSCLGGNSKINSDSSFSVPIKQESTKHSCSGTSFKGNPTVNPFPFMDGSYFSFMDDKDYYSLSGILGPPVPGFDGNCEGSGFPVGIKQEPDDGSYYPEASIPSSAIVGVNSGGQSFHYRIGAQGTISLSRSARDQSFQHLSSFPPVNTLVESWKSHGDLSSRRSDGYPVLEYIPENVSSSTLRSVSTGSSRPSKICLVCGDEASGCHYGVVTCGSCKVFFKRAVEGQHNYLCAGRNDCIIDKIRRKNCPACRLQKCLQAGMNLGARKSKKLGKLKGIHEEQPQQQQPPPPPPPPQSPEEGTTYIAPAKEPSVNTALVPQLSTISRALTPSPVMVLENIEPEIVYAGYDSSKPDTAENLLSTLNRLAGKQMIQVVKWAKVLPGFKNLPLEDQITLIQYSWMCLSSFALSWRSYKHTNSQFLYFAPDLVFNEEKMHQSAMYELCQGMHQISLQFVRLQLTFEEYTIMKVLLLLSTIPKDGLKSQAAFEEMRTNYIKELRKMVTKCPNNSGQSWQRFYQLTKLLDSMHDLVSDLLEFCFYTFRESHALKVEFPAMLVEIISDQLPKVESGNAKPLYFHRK
Experimental: The derivatives according to the invention having the general chemical formula have a very strong gestagenic activity. […] They should therefore have in vivo potassium-retaining, natriuretic (antimeralcorticoid) action. These properties were determined using the test described below:
For the culturing of the cells used for the assay, the culture medium used was DMEM (Dulbecco's Modified Eagle Medium: […] of glucose; PAA, #E15-009) with 10% FCS (Biochrom, S0115, batch #615B), 4 mM L-glutamine, 1% penicillin/streptomycin, 1 mg/ml of G418 and 0.5 μg/ml of puromycin.
Reporter cell lines were grown in a density of 4×10^4 cells per hollow in white, nontransparent tissue culture plates in each case having 96 hollows (PerkinElmer, #P12-106-017) and kept in 6% DCC-FCS (activated carbon-treated serum, for the removal of interfering components contained in the serum). The compounds to be investigated were added eight days later, and the cells were incubated with the compounds for 16 hours. The experiments were carried out in triplicate. At the end of the incubation, the effector-containing medium was removed and replaced by lysis buffer. After luciferase assay substrate (promega, #E1501) had been added, the plates containing the 96 hollows were then introduced into a microplate luminometer (Pherastar, BMG labtech), and the luminescence was measured. The […] values were evaluated using software for the calculation of dose-activity relationships.

[2] = reporter cell lines, 16 hours incubation, luciferase luminescence
[3] = reporter cell lines, 16 hours incubation, luciferase luminescence, read-out: MR Antagonism IC50

pregnancy-maintaining dose (ED50) (PR; subcutaneous, with oestrone 5 μg/kg/day)	SMILES	IC50 [1]	MR Antagonism activity [% of the maximum effect] [1, 2]	PR in vivo ED50 (pregnancy-maintaining dose) (PR)	IC50 [1, 3]
3.5 mg/kg/day	C[C@]12CCC(=O)C=C1[C@@H]1C[C@@H]1[C@H]1[C@@H]3[C@@H]4C[C@@H]4[C@@]4(CCC(=O)O4)[C@@]3(C)CC[C@@H]12 [drospirenone, 6β,7β-15β,16β-dimethylene-3-oxo-17-pregn-4-ene-21,17β-carbolactone, reference compound]	–	–	–	–
–	C[C@]12CC[C@H]3[C@@H]([C@H]4C[C@H]4C4=CC(=O)CC[C@@]43C)[C@@H]1[C@@H]1C[C@@H]1[C@@H]2C#N [6β,7β-15β,16β-Bismethylene-17β-cyanoandrost-4-en-3-one]	4.7 nM	98.06 % of the maximum effect	7.3 mg/kg/d s.c.	–
–	C[C@]12CCC(=O)C=C1CC[C@H]1[C@@H]3[C@@H]4C[C@@H]4[C@](C)(C#N)[C@@]3(C)CC[C@@H]12 [17β-Cyano-17α-methyl-15β,16β-methyleneandrost-4-en-3-one]	–	98.30 % of the maximum effect	10.0 mg/kg/d s.c.	42 nM
–	C=CC[C@]1(C#N)CC[C@H]2[C@@H]3CCC4=CC(=O)CC[C@]4(C)[C@H]3CC[C@@]21C [17α-Allyl-17β-cyanoandrost-4-en-3-one]	–	65.30 % of the maximum effect	–	990 nM
–	C[C@]12CC[C@H]3[C@@H](CC4(CC4)C4=CC(=O)CC[C@@]43C)[C@@H]1CC[C@@H]2C#N	20 nM	99.16 % of the maximum effect	25.0 mg/kg/d s.c.	–
